Common to all, as to assay: drug sensitivity score (DSS2, normalised partial AUC of dose-response, 72 h CellTiter-Glo viability) (DSS (dimensionless)); higher = more sensitive (stronger growth inhibition / cytotoxicity); extreme values may be limits of the assay
The test system of one assay is CAF#6 (primary prostate cancer-associated fibroblasts of iCAF-like type). The essentials: (§1)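 The drug sensitivity score reported here is a partial area under the fitted logistic dose–response curve, divided by the log of the curve's upper asymptote and computed in BREEZE; higher values denote greater sensitivity. Low-passage primary prostate cancer-associated fibroblasts, PF179T, WPMY-1, LNCaP and 22Rv1 cells were seeded into 384-well plates preloaded with compounds at five doses across a 10,000-fold range. CellTiter-Glo 2.0 luminescence gave viability at 72 h, scaled to vehicle and positive-control wells.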

In a further assay the test system is CAF#7 (primary prostate cancer-associated fibroblasts of myCAF-like type). The essentials:
as §1

In another assay the test system is CAF#5 (primary prostate cancer-associated fibroblasts of myCAF-like type). A digest of the protocol:
as §1

Another assay relates to WPMY-1. A digest of the protocol: as §1
Another assay concerns LNCAP. A digest of the protocol:
as §1

The next assay concerns 22Rv1. A digest of the protocol: as §1
The test system of a further assay is CAF#2 (primary prostate cancer-associated fibroblasts of iCAF-like type). A digest of the protocol: as §1
A further assay deals with CAF#1 (primary prostate cancer-associated fibroblasts of myCAF-like type). The essentials:
as §1

The test system of a further assay is CAF#3 (primary prostate cancer-associated fibroblasts of myCAF-like type). The essentials: as §1
The next assay deals with PF179T. The essentials:
as §1

In a further assay the test system is CAF#4 (primary prostate cancer-associated fibroblasts of iCAF-like type). The essentials:
as §1

As to `Nc1nccc(-c2c(-c3ccc(F)cc3)ncn2C2CCCCC2)n1` (tested concentration range 1-10000 nM), the drug sensitivity score in the assay on CAF#6 stood at 0; in the assay with CAF#7, 0; with CAF#5, 0; in the assay on WPMY-1 it was 0; with LNCAP, 4.6; with 22Rv1 it was 6.1. Besides, the drug sensitivity score in the assay on CAF#2 was found to be 0.6; in the assay with CAF#1, 0; in the assay on CAF#3, 2.1; in the assay with PF179T, 0; in the assay with CAF#4, 0.1.

For `O=C(O)c1ccc(-c2c[nH]c3ncc(-c4ccccc4)cc23)cc1C1CCCC1` (tested concentration range 1-10000 nM), the drug sensitivity score was determined as 0 in the assay with CAF#6; 0 with CAF#7; 0.8 in the assay on CAF#5; 2.4 in the assay on WPMY-1; 0 in the assay on LNCAP; 0 in the assay with 22Rv1. Besides, the drug sensitivity score in the assay with CAF#2 was determined as 2.3; in the assay on CAF#1, 0; with CAF#3, 0; with PF179T, 0.1; in the assay with CAF#4, 0.

In the case of `O=C1Cc2cc(C(=O)NC3C[C@H]4CC[C@@H](C3)N4S(=O)(=O)CC3CCN(CCCC(F)(F)F)CC3)c(Cl)cc2N1` (stereo partly drawn) (tested concentration range 1-10000 nM), the drug sensitivity score in the assay with CAF#6, in the assay with CAF#7, with CAF#5, with WPMY-1, in the assay on LNCAP and in the assay with 22Rv1 was 0 each time. The drug sensitivity score with CAF#2 stood at 0; in the assay with CAF#1, 0; in the assay on CAF#3 it was 0; in the assay with PF179T, 0.5; in the assay with CAF#4, 0.

As for `O=c1[nH]c(C2CCCN2)nc2c1oc1ccc(Cl)cc12` (stereo not drawn) (tested concentration range 1-10000 nM), the drug sensitivity score in the assay with CAF#6 was found to be 0; in the assay with CAF#7 it was 0; in the assay with CAF#5, 0; in the assay with WPMY-1 it was 3.3; in the assay on LNCAP, 2.7; in the assay with 22Rv1, 0.6. In addition, the drug sensitivity score worked out at 0 in the assay with CAF#2; 0 in the assay with CAF#1; 1.6 with CAF#3; 0 with PF179T; 0 in the assay on CAF#4.

As to `C[C@@H]1CN(CC(=O)Nc2ccc3c(c2)Cc2cccc(-c4cc(=O)cc(N5CCOCC5)o4)c2S3)C[C@H](C)O1` (tested concentration range 2.5-25000 nM), the drug sensitivity score with CAF#6 turned out to be 0.2; in the assay with CAF#7 it was 0; with CAF#5, 0; in the assay on WPMY-1 it was 4.2; in the assay on LNCAP, 6.7; with 22Rv1 it was 2.5. In addition, the drug sensitivity score with CAF#2 is 0.4; with CAF#1 it was 0; in the assay on CAF#3, 0.2; in the assay on PF179T it was 0.4; in the assay with CAF#4, 0.

Turning to `NCC(=O)Nc1ccc(-n2nc(C(F)(F)F)cc2-c2ccc3c(ccc4ccccc43)c2)cc1` (tested concentration range 2.5-25000 nM), the drug sensitivity score was found to be 0 with CAF#6; 0 in the assay with CAF#7; 0 in the assay with CAF#5; 4.4 in the assay with WPMY-1; 1.4 in the assay with LNCAP; 0 in the assay with 22Rv1. The drug sensitivity score was 0 in the assay on CAF#2; 0.7 with CAF#1; 0 with CAF#3; 0 with PF179T; 0.8 with CAF#4.

With `CC/C(=C(\c1ccc(O)cc1)c1ccc(OCCN(C)C)cc1)c1ccccc1` [4-hydroxytamoxifen] (tested concentration range 1-10000 nM), the drug sensitivity score is 1.8 in the assay on CAF#6; 1.6 in the assay with CAF#7; 3.8 in the assay on CAF#5; 7.2 in the assay with WPMY-1; 4.7 in the assay on LNCAP; 6.4 with 22Rv1. Moreover, the drug sensitivity score with CAF#2 is 5.3; in the assay on CAF#1, 3.3; with CAF#3 it was 1.6; in the assay with PF179T, 3.2; in the assay on CAF#4, 6.2.

Consider `Nc1ncnc2c1nc(Cl)n2[C@@H]1O[C@H](CO)[C@@H](O)[C@H]1O` [8-chloro-adenosine] (tested concentration range 5-50000 nM), for which the drug sensitivity score amounted to 2.5 in the assay with CAF#6; 2 in the assay on CAF#7; 6.5 in the assay on CAF#5; 15.7 in the assay on WPMY-1; 15.1 in the assay with LNCAP; 15 in the assay on 22Rv1. The drug sensitivity score with CAF#2 came out at 8.4; with CAF#1, 7.4; with CAF#3, 3.4; in the assay with PF179T, 9.1; in the assay with CAF#4, 9.6.

As to `COc1cc2c(cc1OCCCN1CCCC1)N=C(N)C21CCC1` [A-366] (tested concentration range 2.5-25000 nM), the drug sensitivity score worked out at 1.5 in the assay with CAF#6; 0 with CAF#7; 0 with CAF#5; 4.5 in the assay with WPMY-1; 5.6 with LNCAP; 6.7 with 22Rv1. The drug sensitivity score in the assay with CAF#2 stood at 0; in the assay on CAF#1, 0; in the assay with CAF#3, 0.7; in the assay on PF179T it was 0.1; in the assay with CAF#4, 0.

Regarding `Cc1sc2c(c1C)C(c1ccc(Cl)cc1)=N[C@@H](CC(=O)Nc1ccc(OCCOCCOCCOCCNc3cccc4c3C(=O)N(C3CCC(=O)NC3=O)C4=O)cc1)c1nnc(C)n1-2` (stereo partly drawn) [ARV-825] (tested concentration range 0-300 nM), the drug sensitivity score in the assay on CAF#6 was 11.6; in the assay with CAF#7 it was 17.1; in the assay on CAF#5, 6.2; with WPMY-1, 8.1; with LNCAP it was 17.1; in the assay on 22Rv1, 14.7. For the same compound, the drug sensitivity score in the assay with CAF#2 was determined as 5.8; in the assay with CAF#1, 7.7; in the assay with CAF#3, 15.6; in the assay on PF179T, 3.3; in the assay with CAF#4, 6.9.

On to `CN[C@@H](C)C(=O)N[C@H]1CN(C(=O)CC(C)C)CC[C@H]2CC[C@@H](C(=O)NC(c3ccccc3)c3ccccc3)N2C1=O` [AT-406] (tested concentration range 1-10000 nM), for which the drug sensitivity score in the assay on CAF#6 turned out to be 1.6; in the assay on CAF#7, 0; with CAF#5 it was 0; with WPMY-1 it was 0; with LNCAP, 0; with 22Rv1 it was 0. In addition, the drug sensitivity score with CAF#2, in the assay with CAF#1, with CAF#3, with PF179T and with CAF#4 was 0 throughout.

`CO[C@H]1CC[C@H](N2C(=O)CNc3ncc(-c4ccc(C(C)(C)O)nc4)nc32)CC1` [ATG-008] (tested concentration range 1-10000 nM): the drug sensitivity score with CAF#6 was determined as 2.8; with CAF#7, 3.1; with CAF#5, 7.4; in the assay with WPMY-1 it was 6.2; with LNCAP, 7.6; in the assay on 22Rv1, 8.9. Also, the drug sensitivity score in the assay on CAF#2 was determined as 7; in the assay on CAF#1 it was 5.7; in the assay on CAF#3, 5.5; in the assay with PF179T, 6.3; with CAF#4 it was 6.5.

For the compound `CC[C@H](CC#N)OC(=O)N[C@@H](C)c1cccc(NC(=O)Nc2ccc(-c3cnco3)c(OC)c2)c1` [AVN944] (tested concentration range 1-10000 nM), the drug sensitivity score in the assay on CAF#6 is 11.4; with CAF#7 it was 12.1; in the assay on CAF#5 it was 11.4; in the assay on WPMY-1, 19; with LNCAP it was 18.1; in the assay with 22Rv1 it was 18.7. Further, the drug sensitivity score with CAF#2 turned out to be 16.1; in the assay with CAF#1, 8.5; with CAF#3 it was 8.5; with PF179T it was 14.9; in the assay on CAF#4, 11.4.

(Values after the supplement of paper PMC12592484.)
